Results taken from US10670605B2, “Cysteine reactive probes and uses thereof” (The Scripps Research Institute, priority 2015, dated 2020).

Experiments:
Experiment in all cases: Competitive isoTOP-ABPP in situ (fragment-treated cells)
Assay type in all cases: cell-based
Details in all cases: 200 μM, insitu
[1] = target: T1, cysteines in MDA-MB-231 and Ramos cells (Homo sapiens, UniProt P57764)
T1 sequence (P57764 1-484): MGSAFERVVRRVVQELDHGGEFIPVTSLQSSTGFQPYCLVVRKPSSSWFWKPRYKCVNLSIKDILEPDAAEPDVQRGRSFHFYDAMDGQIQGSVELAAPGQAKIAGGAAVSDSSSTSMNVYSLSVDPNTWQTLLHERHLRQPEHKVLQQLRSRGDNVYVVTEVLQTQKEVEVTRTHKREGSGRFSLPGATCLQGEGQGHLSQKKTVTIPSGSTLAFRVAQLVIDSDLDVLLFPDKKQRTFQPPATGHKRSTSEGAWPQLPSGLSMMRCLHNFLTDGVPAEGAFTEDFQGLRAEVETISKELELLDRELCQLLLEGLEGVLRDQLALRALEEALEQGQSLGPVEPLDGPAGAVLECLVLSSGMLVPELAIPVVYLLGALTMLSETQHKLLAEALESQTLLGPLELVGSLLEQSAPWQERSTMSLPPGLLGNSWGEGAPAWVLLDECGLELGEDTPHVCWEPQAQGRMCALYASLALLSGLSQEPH

[2] = target: T2, cysteines in MDA-MB-231 and Ramos cells (Homo sapiens, UniProt Q13418)
T2 sequence (Q13418 1-452): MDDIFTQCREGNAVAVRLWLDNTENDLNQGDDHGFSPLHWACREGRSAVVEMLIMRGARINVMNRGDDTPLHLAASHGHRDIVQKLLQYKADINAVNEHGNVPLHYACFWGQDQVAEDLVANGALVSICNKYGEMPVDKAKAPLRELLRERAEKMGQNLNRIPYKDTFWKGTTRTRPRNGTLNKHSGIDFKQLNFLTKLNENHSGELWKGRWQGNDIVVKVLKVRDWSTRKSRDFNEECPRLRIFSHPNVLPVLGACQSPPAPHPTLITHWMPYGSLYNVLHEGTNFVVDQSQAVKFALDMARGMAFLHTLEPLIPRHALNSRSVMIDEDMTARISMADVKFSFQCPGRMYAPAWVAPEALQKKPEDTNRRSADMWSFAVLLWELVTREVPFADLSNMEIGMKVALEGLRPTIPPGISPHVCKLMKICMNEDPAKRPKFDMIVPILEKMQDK

[3] = target: T3, cysteines in MDA-MB-231 and Ramos cells (Homo sapiens, UniProt Q15084)
T3 sequence (Q15084 20-440): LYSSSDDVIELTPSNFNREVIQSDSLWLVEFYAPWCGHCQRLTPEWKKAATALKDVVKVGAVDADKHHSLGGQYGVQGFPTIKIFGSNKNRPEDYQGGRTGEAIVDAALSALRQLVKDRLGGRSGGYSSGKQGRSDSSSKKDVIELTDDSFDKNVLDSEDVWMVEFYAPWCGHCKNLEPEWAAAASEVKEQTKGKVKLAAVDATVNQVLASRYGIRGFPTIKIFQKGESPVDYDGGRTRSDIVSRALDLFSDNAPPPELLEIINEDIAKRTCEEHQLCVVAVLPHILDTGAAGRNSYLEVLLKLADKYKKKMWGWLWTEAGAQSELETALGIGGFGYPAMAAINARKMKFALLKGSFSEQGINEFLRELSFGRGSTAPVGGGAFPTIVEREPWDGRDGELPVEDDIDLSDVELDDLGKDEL

[4] = target: T4, cysteines in MDA-MB-231 and Ramos cells (Homo sapiens, UniProt Q9NRG0)
T4 sequence (Q9NRG0 1-131): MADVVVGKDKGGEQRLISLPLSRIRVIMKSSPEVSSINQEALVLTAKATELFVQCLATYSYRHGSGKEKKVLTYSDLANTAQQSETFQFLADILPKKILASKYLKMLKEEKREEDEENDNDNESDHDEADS

[5] = target: T5, cysteines in MDA-MB-231 and Ramos cells (Homo sapiens, UniProt Q9NYL9)
T5 sequence (Q9NYL9 1-352): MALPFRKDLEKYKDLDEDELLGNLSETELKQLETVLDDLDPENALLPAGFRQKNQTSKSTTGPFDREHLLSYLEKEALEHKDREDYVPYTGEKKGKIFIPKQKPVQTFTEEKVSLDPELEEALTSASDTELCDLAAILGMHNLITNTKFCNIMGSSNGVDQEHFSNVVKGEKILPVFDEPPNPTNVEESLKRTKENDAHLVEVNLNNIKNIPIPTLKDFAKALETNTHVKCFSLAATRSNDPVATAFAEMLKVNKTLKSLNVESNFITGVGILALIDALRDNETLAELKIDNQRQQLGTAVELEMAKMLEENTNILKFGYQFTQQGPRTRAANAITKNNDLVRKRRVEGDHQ

[6] = target: T6, cysteines in MDA-MB-231 and Ramos cells (Homo sapiens, UniProt Q9ULW0)
T6 sequence (Q9ULW0 1-747): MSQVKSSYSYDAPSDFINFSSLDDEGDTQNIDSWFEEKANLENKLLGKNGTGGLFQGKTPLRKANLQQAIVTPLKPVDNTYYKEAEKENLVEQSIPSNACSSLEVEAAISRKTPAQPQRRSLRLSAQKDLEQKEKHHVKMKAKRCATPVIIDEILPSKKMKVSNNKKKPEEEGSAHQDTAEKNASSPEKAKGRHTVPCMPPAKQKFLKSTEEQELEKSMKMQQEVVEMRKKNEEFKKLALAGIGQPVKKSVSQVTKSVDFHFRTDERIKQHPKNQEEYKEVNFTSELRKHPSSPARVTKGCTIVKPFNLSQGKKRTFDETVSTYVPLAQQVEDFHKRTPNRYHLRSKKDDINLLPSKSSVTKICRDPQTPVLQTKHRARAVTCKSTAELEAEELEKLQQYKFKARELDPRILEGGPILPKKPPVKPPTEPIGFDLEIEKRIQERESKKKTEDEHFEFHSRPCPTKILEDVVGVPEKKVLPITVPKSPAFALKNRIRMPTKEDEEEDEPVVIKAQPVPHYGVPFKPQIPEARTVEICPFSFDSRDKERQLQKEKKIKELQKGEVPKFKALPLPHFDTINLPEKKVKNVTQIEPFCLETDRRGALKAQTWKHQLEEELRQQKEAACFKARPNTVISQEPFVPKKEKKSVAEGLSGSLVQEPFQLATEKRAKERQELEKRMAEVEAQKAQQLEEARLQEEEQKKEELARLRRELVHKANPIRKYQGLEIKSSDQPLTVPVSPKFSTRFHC

[7] = target: cysteines in MDA-MB-231 and Ramos cells (Homo sapiens, UniProt Q15021)
Sequence of cysteines in MDA-MB-231 and Ramos cells (Homo sapiens, UniProt Q15021) (Q15021 whole entry): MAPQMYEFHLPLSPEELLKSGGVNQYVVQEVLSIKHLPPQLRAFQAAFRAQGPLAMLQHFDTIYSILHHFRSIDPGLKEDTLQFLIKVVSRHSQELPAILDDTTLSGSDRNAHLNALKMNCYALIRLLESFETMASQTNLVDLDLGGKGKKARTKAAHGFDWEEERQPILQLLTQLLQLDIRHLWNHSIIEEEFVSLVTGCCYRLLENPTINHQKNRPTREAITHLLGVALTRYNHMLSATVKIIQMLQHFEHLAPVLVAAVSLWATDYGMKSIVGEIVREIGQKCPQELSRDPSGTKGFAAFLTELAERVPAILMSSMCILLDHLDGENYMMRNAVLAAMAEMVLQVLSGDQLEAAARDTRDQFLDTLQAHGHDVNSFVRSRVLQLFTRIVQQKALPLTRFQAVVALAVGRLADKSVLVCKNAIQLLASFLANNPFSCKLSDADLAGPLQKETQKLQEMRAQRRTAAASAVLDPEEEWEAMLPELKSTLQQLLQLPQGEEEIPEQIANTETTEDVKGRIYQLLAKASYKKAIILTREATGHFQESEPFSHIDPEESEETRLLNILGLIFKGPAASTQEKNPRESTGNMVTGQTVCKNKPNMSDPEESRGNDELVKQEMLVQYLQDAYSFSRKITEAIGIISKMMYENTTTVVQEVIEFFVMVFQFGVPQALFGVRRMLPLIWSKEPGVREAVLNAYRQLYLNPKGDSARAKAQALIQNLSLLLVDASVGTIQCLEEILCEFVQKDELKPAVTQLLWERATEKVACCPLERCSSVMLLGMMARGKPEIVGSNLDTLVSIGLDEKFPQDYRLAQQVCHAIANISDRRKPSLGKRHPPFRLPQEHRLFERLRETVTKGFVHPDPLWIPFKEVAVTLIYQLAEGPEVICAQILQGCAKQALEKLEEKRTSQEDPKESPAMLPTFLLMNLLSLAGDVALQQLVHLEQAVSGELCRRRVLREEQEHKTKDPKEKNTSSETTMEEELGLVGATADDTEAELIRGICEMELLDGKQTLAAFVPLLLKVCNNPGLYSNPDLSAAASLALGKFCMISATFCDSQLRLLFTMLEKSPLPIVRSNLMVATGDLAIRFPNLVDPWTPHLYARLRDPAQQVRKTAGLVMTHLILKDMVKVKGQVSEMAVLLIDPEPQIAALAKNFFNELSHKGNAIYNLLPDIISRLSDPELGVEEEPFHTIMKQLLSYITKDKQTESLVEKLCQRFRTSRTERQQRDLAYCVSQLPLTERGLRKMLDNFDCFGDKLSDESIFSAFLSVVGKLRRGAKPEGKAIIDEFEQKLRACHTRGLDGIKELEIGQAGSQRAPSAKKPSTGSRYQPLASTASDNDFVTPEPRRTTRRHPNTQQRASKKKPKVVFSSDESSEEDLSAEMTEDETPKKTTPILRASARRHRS

[8] = target: cysteines in MDA-MB-231 and Ramos cells (Homo sapiens, UniProt Q93009)
Sequence of cysteines in MDA-MB-231 and Ramos cells (Homo sapiens, UniProt Q93009) (Q93009 whole entry): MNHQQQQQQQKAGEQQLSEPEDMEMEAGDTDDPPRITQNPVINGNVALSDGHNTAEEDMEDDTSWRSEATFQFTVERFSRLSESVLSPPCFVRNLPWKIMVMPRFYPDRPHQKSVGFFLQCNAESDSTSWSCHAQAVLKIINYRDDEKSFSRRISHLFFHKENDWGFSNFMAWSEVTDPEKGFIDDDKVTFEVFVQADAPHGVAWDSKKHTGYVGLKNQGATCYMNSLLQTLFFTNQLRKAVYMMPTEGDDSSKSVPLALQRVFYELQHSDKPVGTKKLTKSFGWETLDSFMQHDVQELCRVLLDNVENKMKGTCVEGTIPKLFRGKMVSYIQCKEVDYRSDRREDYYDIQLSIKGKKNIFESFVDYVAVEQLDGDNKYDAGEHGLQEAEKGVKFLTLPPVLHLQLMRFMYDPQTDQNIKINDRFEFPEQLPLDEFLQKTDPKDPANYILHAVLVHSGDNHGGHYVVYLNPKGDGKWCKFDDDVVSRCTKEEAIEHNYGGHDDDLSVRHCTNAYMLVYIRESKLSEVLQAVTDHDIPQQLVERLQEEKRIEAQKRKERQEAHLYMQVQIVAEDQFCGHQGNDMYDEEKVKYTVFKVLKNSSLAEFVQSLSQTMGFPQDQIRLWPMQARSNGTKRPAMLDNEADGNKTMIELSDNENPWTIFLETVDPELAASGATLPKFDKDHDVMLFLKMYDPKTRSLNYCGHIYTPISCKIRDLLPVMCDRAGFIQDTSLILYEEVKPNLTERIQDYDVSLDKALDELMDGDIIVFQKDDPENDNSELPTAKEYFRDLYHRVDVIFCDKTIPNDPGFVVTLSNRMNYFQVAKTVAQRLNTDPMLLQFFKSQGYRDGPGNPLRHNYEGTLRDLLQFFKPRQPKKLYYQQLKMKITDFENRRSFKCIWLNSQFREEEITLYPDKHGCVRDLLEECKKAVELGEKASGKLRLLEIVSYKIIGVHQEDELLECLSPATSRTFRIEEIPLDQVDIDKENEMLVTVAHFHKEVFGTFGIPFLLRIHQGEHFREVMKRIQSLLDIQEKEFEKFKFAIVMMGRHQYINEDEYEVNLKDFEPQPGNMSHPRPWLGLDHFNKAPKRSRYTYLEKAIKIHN

COc1ccc2c(c1)CCCN2C(=O)CCl [compound 2]
isoTOP-ABPP reactivity P57764_C268 GSDMD [1]; 231: 20.0
isoTOP-ABPP reactivity Q13418_C346 ILK [2]; 231: 1.4
isoTOP-ABPP reactivity Q15084_C55 PDIA6 [3]; 231: 3.0
isoTOP-ABPP reactivity Q9NRG0_C55 CHRAC1 [4]; 231: 20.0
isoTOP-ABPP reactivity Q9NYL9_C132 TMOD3 [5]; 231: 2.2
isoTOP-ABPP reactivity Q9ULW0_C536 TPX2 [6]; 231: 20.0

COc1cc2c(cc1OC)CN(C(=O)CCl)CC2 [compound 8]
isoTOP-ABPP reactivity P57764_C268 GSDMD [1]; 231: 8.4
isoTOP-ABPP reactivity Q15021_C439 NCAPD2 [7]; 231: 0.6
isoTOP-ABPP reactivity Q15084_C55 PDIA6 [3]; 231: 4.4
isoTOP-ABPP reactivity Q15084_C190 PDIA6 [3]; 231: 5.2
isoTOP-ABPP reactivity Q93009_C223 USP7 [8]; 231: 20.0
isoTOP-ABPP reactivity Q9NRG0_C55 CHRAC1 [4]; 231: 7.4
isoTOP-ABPP reactivity Q9NYL9_C132 TMOD3 [5]; 231: 0.9
isoTOP-ABPP reactivity Q9ULW0_C536 TPX2 [6]; 231: 20.0

O=C(CCl)N1CCC(Cc2ccccc2)CC1 [compound 9]
isoTOP-ABPP reactivity Q13418_C346 ILK [2]; 231: 2.7
isoTOP-ABPP reactivity Q15021_C439 NCAPD2 [7]; 231: 6.1
isoTOP-ABPP reactivity Q15084_C55 PDIA6 [3]; 231: 2.1
isoTOP-ABPP reactivity Q9NRG0_C55 CHRAC1 [4]; 231: 2.9
isoTOP-ABPP reactivity Q9NYL9_C132 TMOD3 [5]; 231: 7.6
isoTOP-ABPP reactivity Q9ULW0_C536 TPX2 [6]; 231: 5.7

O=C(CCl)N1CCN(S(=O)(=O)c2ccccc2F)CC1 [compound 10]
isoTOP-ABPP ratio P57764_C268 ([1]; ramos): 2.2
isoTOP-ABPP ratio Q13418_C346 [2]; 231: 1.1
isoTOP-ABPP ratio Q13418_C346 ([2]; ramos): 8.3
isoTOP-ABPP ratio Q15021_C439 [7]; 231: 5.2
isoTOP-ABPP ratio Q15084_C55 [3]; 231: 3.1
isoTOP-ABPP ratio, Q15084_C190 [3]; 231: 3.7
isoTOP-ABPP ratio Q93009_C223 [8]; 231: 2.5
isoTOP-ABPP ratio Q9NRG0_C55 [4]; 231: 2.7
isoTOP-ABPP ratio Q9ULW0_C536 [6]; 231: 17.6

O=C(CCl)NC(=O)NC12CC3CC(CC(C3)C1)C2 [compound 12]
isoTOP-ABPP ratio Q13418_C346 [2]; 231: 0.6
isoTOP-ABPP ratio Q15021_C439 [7]; 231: 6.7
isoTOP-ABPP ratio Q15084_C55 [3]; 231: 15.4
isoTOP-ABPP ratio, Q15084_C190 [3]; 231: 20.0
isoTOP-ABPP ratio Q93009_C223 [8]; 231: 3.1
isoTOP-ABPP ratio Q9NRG0_C55 [4]; 231: 20.0
isoTOP-ABPP ratio Q9NYL9_C132 [5]; 231: 0.6
isoTOP-ABPP ratio Q9ULW0_C536 [6]; 231: 20.0

O=C(CCl)NCCc1c[nH]c2ccccc12 [compound 13]
isoTOP-ABPP ratio P57764_C268 ([1]; ramos): 1.5
isoTOP-ABPP ratio Q13418_C346 [2]; 231: 0.7
isoTOP-ABPP ratio Q13418_C346 ([2]; ramos): 2.1
isoTOP-ABPP ratio Q15084_C55 ([3]; ramos): 1.5
isoTOP-ABPP ratio Q93009_C223 ([8]; ramos): 1.3
isoTOP-ABPP ratio Q9NRG0_C55 [4]; 231: 1.2
isoTOP-ABPP ratio Q9ULW0_C536 [6]; 231: 1.5

O=C(CCl)NC12CC3CC(CC(C3)C1)C2 [compound 21]
isoTOP-ABPP ratio P57764_C268 [1]; 231: 0.7
isoTOP-ABPP ratio Q13418_C346 [2]; 231: 0.5
isoTOP-ABPP ratio Q15021_C439 [7]; 231: 0.7
isoTOP-ABPP ratio Q15084_C55 [3]; 231: 0.9
isoTOP-ABPP ratio Q93009_C223 [8]; 231: 1.8
isoTOP-ABPP ratio Q9NYL9_C132 [5]; 231: 1.4
isoTOP-ABPP ratio Q9ULW0_C536 [6]; 231: 0.9

COc1ccccc1OCCNC(=O)CCl [compound 28]
isoTOP-ABPP ratio Q15021_C439 [7]; 231: 0.9
isoTOP-ABPP ratio Q15084_C55 [3]; 231: 1.4
isoTOP-ABPP ratio Q93009_C223 [8]; 231: 1.0
isoTOP-ABPP ratio Q9NYL9_C132 [5]; 231: 0.7
isoTOP-ABPP ratio Q9ULW0_C536 [6]; 231: 1.0

O=C(CCl)N1CCN(CC(=O)N2CCOCC2)CC1 [compound 29]
isoTOP-ABPP ratio P57764_C268 ([1]; ramos): 1.1
isoTOP-ABPP ratio Q15021_C439 ([7]; ramos): 1.4
isoTOP-ABPP ratio Q15084_C55 ([3]; ramos): 1.0
isoTOP-ABPP ratio, Q15084_C190 ([3]; ramos): 1.0
isoTOP-ABPP ratio Q93009_C223 ([8]; ramos): 1.0
isoTOP-ABPP ratio Q9NRG0_C55 ([4]; ramos): 1.5
isoTOP-ABPP ratio Q9NYL9_C132 ([5]; ramos): 0.9
isoTOP-ABPP ratio Q9ULW0_C536 ([6]; ramos): 1.8

C=CC(=O)N(Cc1cccnc1)c1cc(C(F)(F)F)cc(C(F)(F)F)c1 [compound 31]
isoTOP-ABPP ratio P57764_C268 ([1]; ramos): 3.1
isoTOP-ABPP ratio Q13418_C346 [2]; 231: 0.6
isoTOP-ABPP ratio Q15021_C439 [7]; 231: 20.0
isoTOP-ABPP ratio Q15084_C55 [3]; 231: 0.7
isoTOP-ABPP ratio, Q15084_C190 [3]; 231: 1.0
isoTOP-ABPP ratio Q9NRG0_C55 ([4]; ramos): 1.6
isoTOP-ABPP ratio Q9NYL9_C132 [5]; 231: 0.7
isoTOP-ABPP ratio Q9NYL9_C132 ([5]; ramos): 0.7

Cc1ccc(C=C(C#N)C(=O)NCCN2CCOCC2)cc1 [compound 41]
isoTOP-ABPP ratio P57764_C268 [1]; 231: 0.6
isoTOP-ABPP ratio Q13418_C346 [2]; 231: 0.6
isoTOP-ABPP ratio Q15021_C439 [7]; 231: 0.8
isoTOP-ABPP ratio Q15084_C55 [3]; 231: 0.9
isoTOP-ABPP ratio, Q15084_C190 [3]; 231: 0.9
isoTOP-ABPP ratio Q9NRG0_C55 [4]; 231: 0.9
isoTOP-ABPP ratio Q9NYL9_C132 [5]; 231: 0.3
isoTOP-ABPP ratio Q9ULW0_C536 [6]; 231: 1.2

CC1CCc2ccccc2N1C(=O)CCl (stereo not drawn) [compound 45]
isoTOP-ABPP ratio P57764_C268 [1]; 231: 20.0
isoTOP-ABPP ratio Q15084_C55 [3]; 231: 2.0
isoTOP-ABPP ratio, Q15084_C190 [3]; 231: 2.8
isoTOP-ABPP ratio Q93009_C223 [8]; 231: 20.0
isoTOP-ABPP ratio Q9NRG0_C55 [4]; 231: 20.0
isoTOP-ABPP ratio Q9NYL9_C132 [5]; 231: 0.9
isoTOP-ABPP ratio Q9ULW0_C536 [6]; 231: 20.0
